Assay results taken from patent US20250092002A1, “FLUORINATED CATIONIC LIPIDS FOR USE IN LIPID NANOPARTICLES” (Acuitas Therapeutics, Inc., priority 2021, published 2025).
Like-named read-outs stand apart in the source and are kept apart here.

Experiments:
[1] = tested on: luciferase expression in the liver; assay: In vivo luciferase mRNA expression rodent model (liver luciferase after tail vein injection of mRNA-LNP); set-up: species or system mice; settings: tail vein injection, liver 4 hours after administration; for Liver Luc @ 0.5 mg/kg (ng luc/g liver): 0.5 mg mRNA/kg; for Liver Luc (ng luc/g liver), determined at 0.3 mg/kg: 0.3 mg/kg (footnote *)
Procedure: Lipid nanoparticles were prepared and tested according to the general procedures described in PCT Pub. Nos. WO 2015/199952 and WO 2017/004143, the full disclosures of which are incorporated herein by reference. Briefly, cationic lipid, DSPC, cholesterol and PEG-lipid were solubilized in ethanol at a molar ratio of about 50:10:38.5:1.5 or about 47.5:10:40.7:1.8. Lipid nanoparticles (LNP) were prepared at a total lipid to mRNA weight ratio of approximately 10:1 to 40:1. The mRNA is diluted to 0.2 mg/mL in 10 to 50 mM citrate or acetate buffer, pH 4. Syringe pumps were used to mix the ethanolic lipid solution with the mRNA aqueous solution at a ratio of about 1:5 to 1:3 (vol/vol) with total flow rates above 15 mL/min. The ethanol was then removed and the external buffer replaced with PBS by dialysis. Finally, the lipid nanoparticles were filtered through a 0.2 µm pore sterile filter. Lipid nanoparticle particle size was approximately 55-95 nm diameter, and in some instances approximately 70-90 nm diameter as determined by quasi-elastic light scattering using a Malvern Zetasizer Nano ZS (Malvern, UK).
Studies were performed in 6-8 week old female C57BL/6 mice (Charles River) or 8-10 week old CD-1 (Harlan) mice (Charles River) according to guidelines established by an institutional animal care committee (ACC) and the Canadian Council on Animal Care (CCAC). Varying doses of mRNA-lipid nanoparticle were systemically administered by tail vein injection and animals euthanized at a specific time point (e.g., 4 hours) post-administration. Liver and spleen were collected in pre-weighed tubes, weights determined, immediately snap frozen in liquid nitrogen and stored at −80° C. until processing for analysis.
For liver, approximately 50 mg was dissected for analyses in a 2 mL FastPrep tubes (MP Biomedicals, Solon OH). ¼″ ceramic sphere (MP Biomedicals) is added to each tube and 500 μL of Glo Lysis Buffer—GLB (Promega, Madison WI) equilibrated to room temperature is added to liver tissue. Liver tissues were homogenized with the FastPrep24 instrument (MP Biomedicals) at 2×6.0 m/s for 15 seconds. Homogenate was incubated at room temperature for 5 minutes prior to a 1:4 dilution in GLB and assessed using SteadyGlo Luciferase assay system (Promega). Specifically, 50 μL of diluted tissue homogenate was reacted with 50 μL of SteadyGlo substrate, shaken for 10 seconds followed by 5 minute incubation and then quantitated using a CentroXS^3 LB 960 luminometer (Berthold Technologies, Germany). The amount of protein assayed was determined by using the BCA protein assay kit (Pierce, Rockford IL). Relative luminescence units (RLU) were then normalized to total μg protein assayed. To convert RLU to ng luciferase a standard curve was generated with QuantiLum Recombinant Luciferase (Promega).
The FLuc mRNA (L-6107 or L-7202) from Trilink Biotechnologies will express a luciferase protein, originally isolated from the firefly, Photimus pyralis. FLuc is commonly used in mammalian cell culture to measure both gene expression and cell viability. It emits bioluminescence in the presence of the substrate, luciferin. This capped and poly-adenylated mRNA was fully substituted with respect to uridine and/or cytidine nucleosides.
Representative compounds of the disclosure shown in Table 2 were formulated using the following molar ratio: 50% cationic lipid/10% distearoylphosphatidylcholine (DSPC)/38.5% Cholesterol/1.5% PEG lipid 2-[2-(ω-methoxy(polyethyleneglycol2000)ethoxy]-N,N-ditetradecylacetamide) or 47.5% cationic lipid/10% DSPC/40.7% Cholesterol/1.8% PEG lipid. Relative activity was determined by measuring luciferase expression in the liver 4 hours following administration via tail vein injection as described in Example 1. The activity was compared at a dose of 1.0 or 0.5 or 0.3 mg mRNA/kg and expressed as ng luciferase/g liver measured 4 hours after administration, as described in Example 1. Compound numbers in Table 2 refer to the compound numbers of Table 1. […]

[2] = Determination of pKa of formulated lipids (TNS fluorescence assay in lipid nanoparticles); type: physicochemical; settings: cationic lipid formulated in lipid nanoparticles (cationic lipid/DSPC/cholesterol/PEG-lipid 47.5/10/40.7/1.8 mol %)
Procedure: As described elsewhere, the pKa of formulated cationic lipids is correlated with the effectiveness of LNPs for delivery of nucleic acids (see Jayaraman et al, Angewandte Chemie, International Edition (2012), 51(34), 8529-8533; Semple et al, Nature Biotechnology 28, 172-176 (2010)). The preferred range of pKa is ˜5 to ˜7. The pKa of each cationic lipid was determined in lipid nanoparticles using an assay based on fluorescence of 2-(p-toluidino)-6-napthalene sulfonic acid (TNS). Lipid nanoparticles comprising cationic lipid/DSPC/cholesterol/PEG-lipid (47.5/10/40.7/1.8 mol %) in PBS at a concentration of 0.4 mM total lipid were prepared using the in-line process as described in Example 1. TNS was prepared as a 100 μM stock solution in distilled water. Vesicles were diluted to 24 μM lipid in 2 mL of buffered solutions containing, 10 mM HEPES, 10 mM MES, 10 mM ammonium acetate, 130 mM NaCl, where the pH ranged from 2.5 to 11. An aliquot of the TNS solution was added to give a final concentration of 1 μM and following vortex mixing fluorescence intensity was measured at room temperature in a SLM Aminco Series 2 Luminescence Spectrophotometer using excitation and emission wavelengths of 321 nm and 445 nm. A sigmoidal best fit analysis was applied to the fluorescence data and the pKa was measured as the pH giving rise to half-maximal fluorescence intensity.

[3] = probe 2-(p-toluidino)-6-napthalene sulfonic acid (TNS), 1 µM final, read-out: pKa

pKa [2, 3] | Compound | Liver Luc @ 0.5 mg/kg (ng luc/g liver) [1] [ng luc/g liver] | Liver Luc (ng luc/g liver), determined at 0.3 mg/kg [1] [ng luc/g liver] | Liver Luc (ng luc/g liver), determined at 1.0 mg/kg [1] [ng luc/g liver] | pKa [2]
6.28 | CCCCCCCCC(CCCCCC)COC(=O)CCCCCCCCC(CCCCCCCCC(=O)OCC(CCCCCC)CCCCCCCC)N(CCCN(C)C)C(=O)CCCC(F)(F)F (centres unmarked) [Compound I-14, BIS(2-HEXYLDECYL) 10-(N-(3-(DIMETHYLAMINO)PROPYL)-5,5,5-TRIFLUOROPENTANAMIDO)NONADECANEDIOATE] | 331 ± 127 | – | – | –
6.78 | CCCCCCC(CCCC)COC(=O)CCCCCC(CCCCCC(=O)OCC(CCCC)CCCCCC)N(CCCN(C)C)C(=O)CCCC(F)(F)F (centres unmarked) [Compound I-15, BIS(2-BUTYLOCTYL) 7-(N-(3-(DIMETHYLAMINO)PROPYL)-5,5,5-TRIFLUOROPENTANAMIDO)TRIDECANEDIOATE] | 1007 ± 671 | – | – | –
5.97 | CCCCCCC(CCCC)COC(=O)CCCCCC(CCCCCC(=O)OCC(CCCC)CCCCCC)N(CCN(C)C)C(=O)CCCC(F)(F)F (centres unmarked) [Compound I-16, BIS(2-BUTYLOCTYL) 7-(N-(2-(DIMETHYLAMINO)ETHYL)-5,5,5-TRIFLUOROPENTANAMIDO)TRIDECANEDIOATE] | 1233 ± 305 | – | – | –
5.96 | CCCCCCCC(F)C(=O)N(CCCN1CCCC1)C(CCCCCCCCC(=O)OCC(CCCC)CCCCCC)CCCCCCCCC(=O)OCC(CCCC)CCCCCC (centres unmarked) [Compound I-22, BIS(2-BUTYLOCTYL) 10-(2-FLUORO-N-(3-(PYRROLIDIN-1-YL)PROPYL)NONANAMIDO)NONADECANEDIOATE] | – | 10062 ± 2580 | 82847 ± 27713 | –
6.04 | CCCCCCCCCCN(C(=O)C(F)CCCN(C)C)C(CCCCCCCCC(=O)OCC(CCCC)CCCCCC)CCCCCCCCC(=O)OCC(CCCC)CCCCCC (centres unmarked) [Compound I-24, BIS(2-BUTYLOCTYL) 10-(N-DECYL-5-(DIMETHYLAMINO)-2-FLUOROPENTANAMIDO)NONADECANEDIOATE] | – | 9411 ± 1733 | – | –
– | CCCCC(CC)COC(=O)CCCCCCCCC(CCCCCCCCC(=O)OCC(CC)CCC)N(CCCCN(C)C)C(=O)C(F)(F)C(F)(F)C(F)(F)C(F)(F)C(F)(F)C(F)(F)C(F)(F)F (centres unmarked) [I-5 analogue, reference compound] | – | 666 ± 589 | 1338 ± 798 | 6.86
– | CCCCCCCC(=O)N(C(=O)CCCCN(C)C)C(CCCCCC(=O)OCC(CCCC)CCCCC)CCCCCC(=O)OCC(CCCC)CCCCCC (centres unmarked) [I-11 analogue, reference compound] | – | 1626 ± 472 | 8102 ± 4319 | 7.04
